Measurements: ChEMBL document CHEMBL3272098, “Reactions of 2-acyloxyisobutyryl halides with nucleosides. 7. Synthesis and biological evaluation of some 2,2'-anhydro-1(3',5'-di-O-acyl-beta-D-arabinofuranosyl)cytosine hydrochlorides” (J Med Chem, 1976)
The source made the active and inactive calls. The rule behind the calls is not given here.

Columns and labels:
[1] = tested on: Vaccinia virus; experiment: Antiviral activity against Vaccinia virus IHD infected in African green monkey BGM cells after 6 days by plaque reduction assay; assay type: functional; conditions: Orthopoxvirus vaccinia, 144 h, read-out: ED50 (the source's name)
[2] = tested on: L1210; experiment: Antitumor activity against mouse L1210 cells allografted in po dosed BDF1 mouse administered 24 hrs post-implantation; assay type: functional, organism-based
[3] = tested on: Herpesviridae sp.; experiment: Antiviral activity against Herpes simplex virus HF infected in African green monkey BGM cells after 6 days by plaque reduction assay; assay type: functional; conditions: 144 h, read-out: ED50 (the source's name)
[4] = tested on: BGM; experiment: Antiviral activity against Poliovirus type 1 Mahoney infected in African green monkey BGM cells after 5 days by pulp disk diffusion assay; assay type: functional, cell-based; conditions: Human poliovirus 1 Mahoney
[5] = tested on: Measles morbillivirus; experiment: Antiviral activity against Measles virus infected in African green monkey BGM cells after 5 days by pulp disk diffusion assay; assay type: functional, organism-based
[6] = tested on: Mus musculus; experiment: Toxicity in BDF1 mouse allografted with mouse L1210 cells at 50 mg/kg, ip administered 24 hrs post-implantation measured up to 30 days; assay type: organism-based; set-up: dose 50 mg/kg, route intraperitoneal; conditions: in vivo
[7] = tested on: Mus musculus; experiment: Toxicity in BDF1 mouse allografted with mouse L1210 cells assessed as reduction in average life span at 200 mg/kg, ip administered 24 hrs post-implantation measured up to 30 days relative to control; assay type: organism-based; set-up: dose 200 mg/kg, route intraperitoneal; scale not given: the % may be the effect or the level left; conditions: in vivo
[8] = tested on: HeLa; experiment: Cytotoxicity against human HeLa cells after 48 hrs by Coulter counting analysis; assay type: functional; conditions: read-out: ED50 (the source's name)
[9] = tested on: Mus musculus; experiment: Toxicity in BDF1 mouse allografted with mouse L1210 cells assessed as survival at 200 mg/kg, ip administered 24 hrs post-implantation after 30 days; assay type: organism-based; set-up: dose 200 mg/kg, route intraperitoneal; conditions: in vivo, 720 h
[10] = tested on: L1210; experiment: Antitumor activity against mouse L1210 cells allografted in BDF1 mouse assessed as survival at 50 mg/kg, ip administered 24 hrs post-implantation after 30 days; assay type: functional, organism-based; set-up: dose 50 mg/kg
[11] = tested on: L1210; experiment: Antitumor activity against mouse L1210 cells allografted in BDF1 mouse assessed as increase in life span at 50 mg/kg, ip administered 24 hrs post-implantation measured up to 30 days relative to control; assay type: functional; conditions: route intraperitoneal
[12] = tested on: unidentified influenza virus; experiment: Antiviral activity against Influenza virus Ao/WNS infected in monkey LLC-MK2 cells after 5 days by pulp disk diffusion assay; assay type: functional, organism-based
[13] = tested on: L1210; experiment: Antitumor activity against mouse L1210 cells allografted in BDF1 mouse assessed as survival at 500 mg/kg, ip administered 24 hrs post-implantation after 30 days; assay type: functional, organism-based; set-up: dose 500 mg/kg
[14] = tested on: Mus musculus; experiment: Toxicity in BDF1 mouse allografted with mouse L1210 cells at 50 to 1000 mg/kg, ip administered 24 hrs post-implantation measured up to 30 days; assay type: organism-based; set-up: dose 50-1000 mg/kg, route intraperitoneal; conditions: in vivo
[15] = tested on: L1210; experiment: Antitumor activity against mouse L1210 cells allografted in BDF1 mouse assessed as increase in life span at 1000 mg/kg, ip administered 24 hrs post-implantation measured up to 30 days relative to control; assay type: functional; conditions: route intraperitoneal
[16] = tested on: L1210; experiment: Antitumor activity against mouse L1210 cells allografted in BDF1 mouse assessed as survival at 1000 mg/kg, ip administered 24 hrs post-implantation after 30 days; assay type: functional, organism-based; set-up: dose 1000 mg/kg
[17] = tested on: L1210; experiment: Antitumor activity against mouse L1210 cells allografted in BDF1 mouse assessed as increase in life span at 500 mg/kg, ip administered 24 hrs post-implantation measured up to 30 days relative to control; assay type: functional; conditions: route intraperitoneal
[18] = tested on: L1210; experiment: Antitumor activity against mouse L1210 cells allografted in BDF1 mouse assessed as increase in life span at 200 mg/kg, ip administered 24 hrs post-implantation measured up to 30 days relative to control; assay type: functional; conditions: route intraperitoneal
[19] = tested on: Mus musculus; experiment: Toxicity in BDF1 mouse allografted with mouse L1210 cells assessed as survival at 500 mg/kg, ip administered 24 hrs post-implantation after 30 days; assay type: organism-based; set-up: dose 500 mg/kg, route intraperitoneal; conditions: in vivo, 720 h
[20] = tested on: Mus musculus; experiment: Toxicity in BDF1 mouse allografted with mouse L1210 cells assessed as survival at 1000 mg/kg, ip administered 24 hrs post-implantation after 30 days; assay type: organism-based; set-up: dose 1000 mg/kg, route intraperitoneal; conditions: in vivo, 720 h
[21] = tested on: Mus musculus; experiment: Toxicity in BDF1 mouse allografted with mouse L1210 cells assessed as reduction in average life span at 500 mg/kg, ip administered 24 hrs post-implantation measured up to 30 days relative to control; assay type: organism-based; set-up: dose 500 mg/kg, route intraperitoneal; scale not given: the % may be the effect or the level left; conditions: in vivo
[22] = tested on: Mus musculus; experiment: Toxicity in BDF1 mouse allografted with mouse L1210 cells assessed as reduction in average life span at 1000 mg/kg, ip administered 24 hrs post-implantation measured up to 30 days relative to control; assay type: organism-based; set-up: dose 1000 mg/kg, route intraperitoneal; scale not given: the % may be the effect or the level left; conditions: in vivo
[23] = tested on: L1210; experiment: Antitumor activity against mouse L1210 cells allografted in BDF1 mouse assessed as survival at 200 mg/kg, ip administered 24 hrs post-implantation after 30 days; assay type: functional, organism-based; set-up: dose 200 mg/kg

Row | Compound | EC50 [1] | Activity [2] | EC50 [3] | Activity [4] | Activity [5] | Activity [6] | Activity [7] | EC50 [8] | Activity [9] | Activity [10] | ILS at 50 mg/kg [11] | Activity [12] | ILS at 200 mg/kg [18] | Activity [19] | Activity [20] | Activity [21] | Activity [22] | other results
1 | C=CCCCCCCCCC(=O)OC[C@H]1O[C@@H]2[C@@H](Oc3nc(=N)ccn32)[C@@H]1OC(=O)CCCCCCCCC=C.Cl | 0.44 µM | inactive | 0.78 µM | inactive | inactive | Non-toxic | 74% | 0.1 µg/mL | Toxic | inactive | 24% | inactive | – | – | – | – | – | –
2 | C/C=C/C=C/C(=O)OC[C@H]1O[C@@H]2[C@@H](Oc3nc(=N)ccn32)[C@@H]1OC(=O)/C=C/C=C/C.Cl | 5.8 µM | inactive | > 10 µM | inactive | inactive | Non-toxic | 100% | 0.1 µg/mL | Toxic | inactive | 1% | inactive | – | – | – | – | – | –
3 | CCCCCCCC/C=C\CCCCCCCCCCCC(=O)OC[C@H]1O[C@@H]2[C@@H](Oc3nc(=N)ccn32)[C@@H]1OC(=O)CCCCCCCCCCC/C=C\CCCCCCCC.Cl | > 30 µM | inactive | > 30 µM | inactive | inactive | – | – | 4 µg/mL | – | – | > 202% | inactive | > 267% | – | – | – | – | Activity [13]: Active; Activity [14]: Non-toxic; ILS at 1000 mg/kg [15]: > 257%; Activity [16]: Active; ILS at 500 mg/kg [17]: > 257%
4 | CCCCCC(=O)OC[C@H]1O[C@@H]2[C@@H](Oc3nc(=N)ccn32)[C@@H]1OC(=O)CCCCC.Cl | 0.27 µM | inactive | 1 µM | inactive | inactive | – | 61% | 0.11 µg/mL | Toxic | inactive | 26% | inactive | – | Toxic | Toxic | 86% | 100% | –
5 | CCCCCCCC/C=C\CCCCCCCC(=O)OC[C@H]1O[C@@H]2[C@@H](Oc3nc(=N)ccn32)[C@@H]1OC(=O)CCCCCCC/C=C\CCCCCCCC.Cl | 3.2 µM | inactive | 8.5 µM | inactive | inactive | – | – | 0.3 µg/mL | – | – | > 141% | inactive | > 257% | Toxic | Toxic | 23% | 31% | Activity [23]: Active
